From patent publication US20260001893A1, “SMALL MOLECULE MODULATORS OF STAT6” (Gilead Sciences, Inc., priority 2024, published 2026)

Tested on: Eotaxin-3 (CCL26) release in human whole blood stimulated with IL-4
Experiment: Human whole blood eotaxin-3 assay (IL-4 stimulated eotaxin-3 release)
Format: cell-based
Details: Homo sapiens, 48 h, human whole blood stimulated with recombinant human IL-4, 48 h, geometric mean; for EC50: inhibition of eotaxin-3 release, given for test compounds with >80% Emax
Method: Human Whole Blood Eotaxin-3 Assay
This was a human whole blood assay using recombinant human Interleukin 4 to stimulate the blood and measuring the ability of the test compounds to inhibit eotaxin-3 release. The biological activities of the test compounds have been tested in human whole blood stimulated with IL-4 measuring Eotaxin-3 release. The test compounds were added to 384 well clear flat-bottom plate in a 4-fold serial dilution in triplicates using a liquid handler. Human whole blood stabilized in lithium-heparin tubes was added in a volume of 65 μL per well, resulting in a final DMSO concentration of 0.5%. The plate is incubated for 2 h at 37° C. under 5% CO2/95% air. Subsequently, 5 μL of recombinant human IL-4 (R&D Systems, cat #204-ILB) was added to the wells to a final concentration of […]. The plate was incubated for 48 h at 37° C. under 5% CO2/95% air. The plate was spun down for 10 minutes at 500×g and 20 μL supernatant was harvested and transferred to a 384 well v-bottom plate using a liquid handler and stored at −20° C. until further analysis. 10 μL supernatant was used to measure the level of Eotaxin-3 (CCL26) using Human Eotaxin-3 MSD kit from Mesocsale (Cat #K251UEK-4). The assay was performed according to the manufacture instructions.
The data from the human whole blood eotaxin-3 assay is shown below for Examples 1ab3, 1ab6, 1d23, and 1d4 (where the effect in % is plotted against the test concentration in M on a log-scale).

Structure (SMILES)	EC50	Emax (given for test compounds with <80% Emax)
[2H]C([2H])([2H])N(C(=O)c1ccc(C2CCN([C@@H](C)c3cc4c(-n5ccc6[nH]ncc6c5=O)ccnc4n3C)CC2)cc1)C([2H])([2H])[2H] [Example 1m89, (S)—N,N-bis(methyl-d3)-4-(1-(1-(1-methyl-4-(4-oxo-1,4-dihydro-5H-pyrazolo[4,3-c]pyridin-5-yl)-1H-pyrrolo[2,3-b]pyridin-2-yl)ethyl)piperidin-4-yl)benzamide]	5.87 nM	–
CNc1ccn(-c2ccnc3c2cc(CN2CC=C(c4c(F)cc(C(=O)N(C)C)cc4F)CC2)n3C)c(=O)c1 [Example 1m90, 3,5-difluoro-N,N-dimethyl-4-(1-((1-methyl-4-(4-(methylamino)-2-oxopyridin-1 (2H)-yl)-1H-pyrrolo[2,3-b]pyridin-2-yl)methyl)-1,2,3,6-tetrahydropyridin-4-yl)benzamide]	28.8 nM	–
CNc1ccn(-c2ccnc3c2cc(CN2CCC(c4c(F)cc(C(=O)N(C)C)cc4F)CC2)n3C)c(=O)c1 [Example 1m91, 3,5-difluoro-N,N-dimethyl-4-(1-((1-methyl-4-(4-(methylamino)-2-oxopyridin-1 (2H)-yl)-1H-pyrrolo[2,3-b]pyridin-2-yl)methyl)piperidin-4-yl)benzamide]	45.5 nM	–
[2H]C([2H])([2H])N(C(=O)c1cc(C)c(C2=CCN([C@@H](C)c3cc4c(-n5ccc(N)cc5=O)ccnc4n3C)CC2)c(F)c1)C([2H])([2H])[2H] [Example 1m93, (S)-4-(1-(1-(4-(4-amino-2-oxopyridin-1 (2H)-yl)-1-methyl-1H-pyrrolo[2,3-b]pyridin-2-yl)ethyl)-1,2,3,6-tetrahydropyridin-4-yl)-3-fluoro-5-methyl-N,N-bis(methyl-d3)benzamide]	3.76 nM	–
[2H]C([2H])([2H])N(C(=O)c1cc(C)c(C2=CCN(Cc3cc4c(-n5ccc(N)c(C)c5=O)ccnc4n3C)CC2)c(F)c1)C([2H])([2H])[2H] [Example 1m94, 4-(1-((4-(4-amino-3-methyl-2-oxopyridin-1 (2H)-yl)-1-methyl-1H-pyrrolo[2,3-b]-pyridin-2-yl)methyl)-1,2,3,6-tetrahydropyridin-4-yl)-3-fluoro-5-methyl-N,N-bis(methyl-d3)benzamide]	6.65 nM	–
CNc1ccn(-c2ccnc3c2cc(CN2CCC(c4c(F)cc(C(=O)N(C)C)cc4F)CC2)n3C)c(=O)n1 [Example 1m95, 3,5-difluoro-N,N-dimethyl-4-(1-((1-methyl-4-(4-(methylamino)-2-oxopyrimidin-1 (2H)-yl)-1H-pyrrolo[2,3-b]pyridin-2-yl)methyl)piperidin-4-yl)benzamide]	44.6 nM	–
[2H]C([2H])([2H])N(C(=O)c1cc(C)c(C2=CCN(Cc3cc4c(-n5ccc(NC)nc5=O)ccnc4n3C)CC2)c(F)c1)C([2H])([2H])[2H] [Example 1m96, 3-fluoro-5-methyl-N,N-bis(methyl-d3)-4-(1-((1-methyl-4-(4-(methylamino)-2-oxopyrimidin-1 (2H)-yl)-1H-pyrrolo[2,3-b]pyridin-2-yl)methyl)-1,2,3,6-tetrahydropyridin-4-yl)benzamide]	3.52 nM	–
[2H]C([2H])([2H])N(C(=O)c1ccc(C2CCN([C@@H](C)c3cc4c(-n5c(F)cc(NC)cc5=O)ccnc4n3C)CC2)cc1)C([2H])([2H])[2H] [Example 1m97, 4-(1-((1S)-1-(4-(6-fluoro-4-(methylamino)-2-oxopyridin-1 (2H)-yl)-1-methyl-1H-pyrrolo[2,3-b]pyridin-2-yl)ethyl)piperidin-4-yl)-N,N-bis(methyl-d3)benzamide]	–	10 to 20%
[2H]C([2H])([2H])N(C(=O)c1cc(F)c(C2=CCN(Cc3cc4c(-n5ccc(NC)cc5=O)ccnc4n3C)CC2)c(F)c1)C([2H])([2H])[2H] [Example 1m98, 3,5-difluoro-N,N-bis(methyl-d3)-4-(1-((1-methyl-4-(4-(methylamino)-2-oxopyridin-1 (2H)-yl)-1H-pyrrolo[2,3-b]pyridin-2-yl)methyl)-1,2,3,6-tetrahydropyridin-4-yl)benzamide]	22.4 nM	–
Cc1cc(C(=O)N(C)C)cc(F)c1C1=CCN(Cc2cc3c(-n4ccc5c(c4=O)CCN5)ccnc3n2C)CC1 [Example 1m101, 3-fluoro-N,N,5-trimethyl-4-(1-((1-methyl-4-(4-oxo-1,2,3,4-tetrahydro-5H-pyrrolo[3,2-c]pyridin-5-yl)-1H-pyrrolo[2,3-b]pyridin-2-yl)methyl)-1,2,3,6-tetrahydropyridin-4-yl)benzamide]	3.02 nM	–

Second part, led by results:

EC50	Structure (SMILES)	Emax (given for test compounds with <80% Emax)
23.4 nM	[2H]C([2H])([2H])N(C(=O)c1cc(F)c(C2CCN(Cc3cc4c(-n5ccc(NC)cc5=O)ccnc4n3C)CC2)c(F)c1)C([2H])([2H])[2H] [Example 1m102, 3,5-difluoro-N,N-bis(methyl-d3)-4-(1-((1-methyl-4-(4-(methylamino)-2-oxopyridin-1 (2H)-yl)-1H-pyrrolo[2,3-b]pyridin-2-yl)methyl)piperidin-4-yl)benzamide]	–
27.1 nM	Cc1cc(C(=O)N(C)C)cc(F)c1C1CCN(Cc2cc3c(-n4ccc5c(c4=O)CCN5)ccnc3n2C)CC1 [Example 1m103, 3-fluoro-N,N,5-trimethyl-4-(1-((1-methyl-4-(4-oxo-1,2,3,4-tetrahydro-5H-pyrrolo[3,2-c]pyridin-5-yl)-1H-pyrrolo[2,3-b]pyridin-2-yl)methyl)piperidin-4-yl)benzamide]	–
156 nM	CNc1ccn(-c2ccnc3c2cc(CN2CC=C(c4c(C)cc(C(=O)N(C)C)cc4F)CC2)n3C)c(=O)c1C [Example 1m104, 3-fluoro-N,N,5-trimethyl-4-(1-((1-methyl-4-(3-methyl-4-(methylamino)-2-oxopyridin-1 (2H)-yl)-1H-pyrrolo[2,3-b]pyridin-2-yl)methyl)-1,2,3,6-tetrahydropyridin-4-yl)benzamide]	–
2.96 nM	CNc1ccn(-c2ccnc3c2cc([C@H](C)N2CC=C(c4c(C)cc(C(=O)N(C)C)cc4F)CC2)n3C)c(=O)n1 [Example 1m106, (S)-3-fluoro-N,N,5-trimethyl-4-(1-(1-(1-methyl-4-(4-(methylamino)-2-oxopyrimidin-1 (2H)-yl)-1H-pyrrolo[2,3-b]pyridin-2-yl)ethyl)-1,2,3,6-tetrahydropyridin-4-yl)benzamide]	–
24.2 nM	CN(C)C(=O)c1cc(F)c(C2=CCN(Cc3cc4c(-n5ccc6c(c5=O)CCN6)ccnc4n3C)CC2)c(F)c1 [Example 1m107, 3,5-difluoro-N,N-dimethyl-4-(1-((1-methyl-4-(4-oxo-1,2,3,4-tetrahydro-5H-pyrrolo[3,2-c]pyridin-5-yl)-1H-pyrrolo[2,3-b]pyridin-2-yl)methyl)-1,2,3,6-tetrahydropyridin-4-yl)benzamide]	–
317 nM	CNc1ccn(-c2ccnc3c2cc([C@@H](C)N2CCC(c4c(C)cc(C(=O)N(C)C)cc4F)CC2)n3C)c(=O)c1 [Example 1m108, (R)-3-fluoro-N,N,5-trimethyl-4-(1-(1-(1-methyl-4-(4-(methylamino)-2-oxopyridin-1 (2H)-yl)-1H-pyrrolo[2,3-b]pyridin-2-yl)ethyl)piperidin-4-yl)benzamide]	–
10.8 nM	CNc1ccn(-c2ccnc3c2cc([C@H](C)N2CCC(c4c(C)cc(C(=O)N(C)C)cc4F)CC2)n3C)c(=O)c1 [Example 1m109, (S)-3-fluoro-N,N,5-trimethyl-4-(1-(1-(1-methyl-4-(4-(methylamino)-2-oxopyridin-1 (2H)-yl)-1H-pyrrolo[2,3-b]pyridin-2-yl)ethyl)piperidin-4-yl)benzamide]	–
